{
  "source": "patent US9517268B2",
  "about": "“Process for producing inorganic particulate material” (MERCK PATENT GMBH, priority 2011, dated 2016)",
  "origin": "cited, not measured here",
  "conditions": "pH 7",
  "data": [
    {"smiles": "CCC(C)n1ncn(-c2ccc(N3CCN(c4ccc(OCC5COC(Cn6cncn6)(c6ccc(Cl)cc6Cl)O5)cc4)CC3)cc2)c1=O", "note": "(stereo not shown) [Itraconazole]", "values": [
      {"measurement": "solubility in aqueous solutions", "value": 1, "unit": "ng/mL"}
    ]}
  ]
}
